Common to all, as to type: cell-based
In experiment [1] the test system is LC3-I/LC3-II, autophagosomes. Kind of experiment: Autophagy: LC3 western, EGFP-LC3 fluorescence, TEM of autophagosomes. On the procedure:
(§1) Proteins were resolved on an 8%, 12%, or 15% SDS-PAGE gel (as appropriate) and electrophoretically transferred to polyvinyldifluoride (PVDF) membranes. After blocking with 5% (w/v) milk in TBST (Tris-Buffered Saline containing 0.1% Tween-20) for one hour at room temperature, membranes were incubated with primary antibodies (at appropriate dilution) overnight at 4° C., followed by extensive washing and incubation for 1 hour with the appropriate horseradish peroxidase-conjugated secondary antibodies (BioRad, Hercules, Calif.). Blots were washed extensively. A rabbit polyclonal EVI1 antibody was obtained (1:3000 dilution, St. Jude's Children's Hospital, Memphis, Tenn.). SnoN rabbit polyclonal (1:1000 dilution), PML, and p21 SMURF2 rabbit polyclonal (1:500 dilution), MRP1 mouse monoclonal (1:500 dilution) and GAPDH mouse monoclonal (1:250 dilution) antibodies were obtained from Santa Cruz Biotechnology (Santa Cruz, Calif.). TGFβRII rabbit polyclonal (1:1000 dilution) antibody was obtained from Strategic Diagnostics (Newark, Del.). Smad2/3 rabbit polyclonal (1:1000 dilution), Beclin-1 rabbit polyclonal (1:1000 dilution), AKT rabbit polyclonal (1:1000 dilution), TAK1 rabbit polyclonal (1:1000 dilution), PARP rabbit polyclonal (1:1000 dilution), Beclin-1 rabbit polyclonal (1:1000 dilution), caspase-3 rabbit polyclonal (1:1000) which detects the pro-caspase form, and ATG5 rabbit polyclonal (1:1000 dilution), LC3-II rabbit polyclonal (1:1000 dilution) antibodies were obtained from Cell Signaling Technology (Danvers, Mass.). The HSP27 mouse monoclonal (1:1000 dilution) antibody was obtained from Stressgen (Ann Arbor, Mich.). Blots were developed using chemiluminescence substrates (Amersham Piscataway, N.J. or BioRad, Hercules, Calif.). Monoclonal PAI-1 antibody was obtained from BD Pharmingen. PSMAD2, total SMAD2/3, p-ERK, p-AKT, and total AKT antibodies were obtained from Cell Signaling Technology. A monoclonal antibody against Arkadia was obtained from Abnova (Taiwan).
HEY cells were seeded onto glass coverslips and allowed to adhere following overnight incubation. The cells were then transiently transfected with EGFP-LC3 (Addgene, Cambridge, Mass.) and allowed to recover for 24 hours. The cells were treated at the appropriate concentrations of As2O3 in the absence or presence of 3-MA (5 and 10 mM), for 18 hours. The cells were then fixed in 4% paraformaldehyde in PBS for 30 minutes at room temperature, washed twice in PBS, and blocked for 1 hour at room temperature in PBS containing 5% goat serum and 0.1% Triton X-100. The cells were counterstained with Hoescht nuclear stain, washed 3 times for 5 minutes in PBS, anti-Fade containing DAPI nuclear stain was then applied, and coverslips mounted onto glass slides and viewed under a Zeiss inverted fluorescence microscope (Moffitt Cancer Center Microscopy Core).
Autophagy induction was analyzed using electron microscopy. […] Cells were then fixed in 2.5% glutaraldehyde in 0.1M phosphate buffer overnight at 4° C. Following rinsing in buffer, cells were scraped from the culture flasks, washed, and then post-fixed in 1% osmium tetroxide in buffer. After dehydration in a graded series of acetone, the cells were embedded in Embed 812 epoxy resin. Thin sections (70 nm) were cut on an Ultramicrotome. The sections on the grids were stained with uranyl acetate and lead citrate. The sections were examined on a Transmission Electron Microscope (Morgagni 268D).

The next experiment deals with cleaved PARP. Kind of experiment: Western analysis of PARP cleavage (early apoptosis marker). On the procedure: as §1
Densitometric analysis was performed using the HP Scanjet 5590 and the Image J program (Image Processing and Analysis in Java, NIH Image Software). Bands were selected and the intensity values were normalized to those for GAPDH. The values are presented as fold-changes relative to control siRNA treated cells.
The clinical inhibitors As2O3, geldanamycin (17-AAG) (dissolved in dimethylsulfoxide [DMSO]), and MG132 (dissolved in DMSO) were obtained from Sigma-Aldrich (St. Louis, Mo.), Fisher Scientific (Pittsburgh, Pa.), and Alexis Biochemicals (Farmingdale, N.Y.), respectively. N-acetyl-L-cysteine (NAC; dissolved in media) and Bortezomib (PS-341; dissolved in DMSO) were obtained from Fisher Scientific. 3-Methyladenine (3-MA; dissolved in media) was obtained from MP Biomedicals (Solon, Ohio). Tiron (4,5-Dihydroxy-1,3-benzenedisulfonic acid, dissolved in media) was obtained from Fisher Scientific. zVAD-fmk (dissolved in DMSO) and bafilomycin A (dissolved in DMSO) was obtained from Axxora LLC (San Diego, Calif.). Bovine catalase was obtained from Sigma-Aldrich. HBED and Mn TBAP was obtained from ENZO Life Sciences (Farmingdale, N.Y.). Ovarian cells were plated in 6-well plates at 250,000 cells per well and grown in complete medium. The following day, the cells were treated with 5 μM MG132, As2O3 (between 2-50 μM), 17-AAG (between 2-50 μM), NAC (Fisher Scientific, between 25 μM to 1 mM), Tiron (between 25 μM to 1 mM), 3-MA (0.1 mM to 10 mM), or zVAD-fmk (25 μM to 100 μM). For control cells, DMSO (a final concentration of <0.5%) was added to compare appropriately to drugs dissolved in DMSO. After the appropriate incubation time (6 or 18 hours), cell lysates were collected, protein quantified, and SDS-PAGE/western analysis was performed. In addition, for selected studies, RNA was isolated, quantified, and used for qPCR analysis.

For a further experiment, the system named is SnoN RNA. Kind of experiment: qPCR of SnoN RNA levels in ovarian cell lines. To be noted: 5 μM As2O3, 18 hours. On the procedure: RNA was isolated using the RNeasy Mini Kit (Qiagen, Valencia, Calif.) from normal, benign, stage I-IV ovarian patient samples and quantitative PCR was performed. A one-step RT-PCR Taqman master mix from Applied Biosystems (Foster City, Calif.) and primers for genes in the 3q26.2 amplicon were obtained using Genebank sequences as well as from Assays on Demand (Hs00180524_m1 (SnoN/SkiL)), with the following primers and probe sets.
Primers/probe sequences for SnoN (Hs00180524_m1), TGFβRII (Hs00234253_m1), and LC3 (Hs00261291_m1) were obtained from Applied Biosystems (Assays by Design).
mRNA levels were determined using the One-Step-Plus Applied Biosystems Detection System or ABI PRISM 7700 Sequence Detection System using β-actin as a reference. PCR conditions were as follows: stage I: 48° C. for 30 min; stage II: 95° C. for 10 min; stage III: [40 cycles] 95° C. for 15 s followed by 60° C. for 1 min Using the correlative method, RNA-fold change in expression was calculated as Ct of gene—Ct of β-actin to generate ΔCt from which ΔCt of the normal sample was subtracted. These values were then converted to log2 values.
The clinical inhibitors As2O3, geldanamycin (17-AAG) (dissolved in dimethylsulfoxide [DMSO]), and MG132 (dissolved in DMSO) were obtained from Sigma-Aldrich (St. Louis, Mo.), Fisher Scientific (Pittsburgh, Pa.), and Alexis Biochemicals (Farmingdale, N.Y.), respectively. N-acetyl-L-cysteine (NAC; dissolved in media) and Bortezomib (PS-341; dissolved in DMSO) were obtained from Fisher Scientific. 3-Methyladenine (3-MA; dissolved in media) was obtained from MP Biomedicals (Solon, Ohio). Tiron (4,5-Dihydroxy-1,3-benzenedisulfonic acid, dissolved in media) was obtained from Fisher Scientific. zVAD-fmk (dissolved in DMSO) and bafilomycin A (dissolved in DMSO) was obtained from Axxora LLC (San Diego, Calif.). […] After the appropriate incubation time (6 or 18 hours), cell lysates were collected, protein quantified, and SDS-PAGE/western analysis was performed. In addition, for selected studies, RNA was isolated, quantified, and used for qPCR analysis.
On the technique in general: Quantitative PCR measures a nucleic acid by following its amplification.

With Arsenic trioxide [As2O3], the “levels of LC3-I and LC3-II” value in experiment [1] (As2O3, 18 hours, correlated with SnoN expression) is recorded as “increased”. Also, in experiment [1] (HEY, As2O3 between 5 μM to 25 μM, data not shown), the EGFP-LC3 staining pattern entry is reported as “punctuate staining pattern around the nucleus”. Besides, in experiment [1] (HEY, data not shown), the “autophagosomes by TEM” value is listed as “numerous double membrane autophagosomes”. Moreover, the “dose at which PARP fragmentation dramatically increased” value with cleaved PARP (HEY and SKOV3) came out at 50 µM; in the experiment on cleaved PARP (T80) it was 25 µM. The “effect on SnoN RNA” value in the experiment on SnoN RNA is “little effect”.

The record behind these values is patent publication US8211646B1, “Methods of treating ovarian cancer by modulating SnoN” (University of South Florida, priority 2008, dated 2012).
